Laboratory results reported in article PMC9716151, “Synthesis, antimalarial, antileishmanial evaluation, and molecular docking study of some 3-aryl-2-styryl substituted-4(3H)-quinazolinone derivatives” (BMC Chemistry, 2022).
≈ marks a conversion by molar mass, not a printed value. Read-outs that look alike come from different tables or passages of the source.

How the values were obtained:
[1] = system: Leishmania donovani promastigotes (clinical isolate); assay: in vitro antipromastigote activity test (AlamarBlue/resazurin); type: cell-based; conditions: for IC50: Leishmania donovani
Description: The antipromastigote activities of the synthesized compounds and the existing antileishmanial drugs (miltefosine and amphotericin B deoxycholate) were assessed using the clinical isolate of the Leishmania donovani strain, which is known to cause VL worldwide. The soluble, stable and non-toxic fluorescence dye, AlamarBlue® (resazurin) (Trek Diagnostic Systems, Inc., Cleveland, OH, USA) was used to quantitatively determine the viability of Leishmania donovani and compute the IC50 value of target compounds and the reference drugs. Only metabolically active cells can reduce resazurin and convert into fluorescent resorufin. Thus, the fluorescent intensity of resorufin is directly correlated to the number of viable Leishmania donovani cells. […] Inspired by its promising antileishmanial outcome, (E)-2-(4-nitrostyryl)-3-phenylquinazolin-4(3H)-one (6) was subjected to molecular docking study by fitting it in Lm-PTR1 active site to gain an insight about the types of interactions between the simulated enzyme and itself.
RPMI-1640, 10% heat-inactivated fetal calf serum (HIFCS), 1% penicillin–streptomycin, and 1% L-glutamine were supplied to make a complete culture medium. The Leishmania donovani isolate was grown first on Novy-MacNeal-Nicolle (NNN) medium and then in tissue-culture flasks containing RPMI 1640 medium supplemented with 10% HIFCS and 1% 100 IU penicillin/mL-100 µg/mL streptomycin solution at 22 ℃ for promastigotes.
Stock solutions of 10 mg/mL of the synthesized compounds were prepared by dissolving each compound in DMSO for the antileishmanial activity testing. Stock solutions were diluted using complete RPMI to obtain aliquots of 10 µg/mL. Then, three-fold serial dilution with complete RPMI gave the final six working concentrations (10, 3.33, 1.11, 0.37, 0.12, and 0.04 µg/mL) of each of the synthesized compounds. Amphotericin B deoxycholate and miltefosine, which were used as positive controls for the comparison of the antileishmanial activities of the test compounds, were also made in three-fold serial dilutions. All the prepared drugs were stored at − 20 °C and retrieved only during use.
Prior to the in vitro antipromastigote testing, serial concentrations of the target compounds were prepared by implementing three-fold dilutions. Then, in a 96-well microtiter plate, 100 µl of each of the three-fold serial dilutions of the target compounds were added in triplicate wells. Then 100 µl of Leishmania donovani suspension containing 3.0 × 10^6 promastigotes per milliliter were added in duplicates. In this experiment, the media and DMSO served as a negative control. Moreover, the concentration of DMSO was maintained below 1% of the target compound preparation to avoid the potential growth inhibition and interference effect of DMSO in the entire antipromastigote assay. Properly labelled plates which belong to the negative-control group, positive-control groups (treated with miltefosine and amphotericin B deoxycholate) and target compounds were then kept in a humidified atmosphere at 22 ℃ under 5% CO2 […]. To determine the viability Leishmania donovani isolates after the respective treatment, 10 µL of fluorochrome AlamarBlue® solution prepared by dissolving 12.5 mg resazurin in 100 mL of distilled water was added to each well and incubated for 4 h. Then, the fluorescence intensity of each well was determined using Victor3 Multilabel Counter (PerkinElmer, Waltham, MA, USA), at 530 nm and 590 nm, excitation and emission wavelengths, respectively. The IC50 values of the negative-control, positive-control groups and test-groups were determined from sigmoidal dose-response curves using GraphPad Prism 5.0 software (GraphPad Software, Inc., San Diego, CA, USA).

[2] = system: Plasmodium berghei ANKA strain; assay: four-day standard suppressive test in infected mice; type: in vivo, Plasmodium berghei (Swiss albino mice); conditions: for inhibition in vivo at 48.46 µmol/kg: Plasmodium berghei, 96 h, read-out: % Suppression; for % Parasitemia: smear on 5th day, mean ± SD
Excerpt: In the present study, the in vivo antimalarial activities of the synthesized compounds were investigated using a mouse model which is ideal to elucidate the prodrug effects of the target compounds triggered by metabolic activation and eradication of infection due to the potential involvement of the immune system. To achieve a steady state infection against the experimental animals, Plasmodium berghei ANKA strain served as a parasite in the experiment and the effects of the target compounds was assessed by the standard four-day suppressive test (often employed to evaluate early infections) in terms of percent inhibition of parasitemia which is recognized as most trustworthy parameter in vivo antimalarial studies. Herein, the standard antimalarial drug chloroquine phosphate (CQ) and equimolar amounts (48.46 µmol/Kg) of the target 3-aryl-2-styry substituted-4(3H)-quinazolinone derivatives were administered orally and the % suppression, parasitemia level, and the survival time of mice were compared against mice treated with a formulation containing a solution of 7% Tween 80, and 3% ethanol in distilled water (control group).
Swiss albino male mice of weight 20–32 g and age 6–8 weeks were used for the antimalarial activity and acute toxicity tests. Plasmodium berghei ANKA strain is used to infect the mice for a four-day suppressive test, were obtained from Biomedical Laboratory, Department of Biology, Faculty of Science, AAU. Leishmania donovani isolate used in this study was obtained from the Leishmania Diagnosis and Research Laboratory (LDRL) culture bank, School of Medicine, AAU.
The antimalarial activities of the target compounds were assessed by the four-day standard suppressive test against mice infected with Plasmodium berghei. The mice were acclimatized to the experimental conditions in the animal house of Biomedical Laboratory, Addis Ababa University, Faculty of Science, Department of Biology, for seven days prior to the in vivo antimalarial activity testing. In due course, the mice were subjected to live in standard cages with a pelleted diet and water. To trigger a steadily rising infection in mice, blood infected with Plasmodium berghei ANKA strain (approximately 20–30% level of parasitemia) was collected from a donor mice using a syringe supplemented with 0.5% trisodium citrate and diluted in physiological saline to […]. Then, 0.2 mL of inoculum (supposed to have about 2 × 10^7 parasites) was injected into each mouse through the intraperitoneal route to achieve the desired level of infection within a short period of time. After 2 h of post-infection, the mice were carefully weighed using a digital balance and randomly assigned into nine groups where each group contain five mice. Of which, mice assigned as a negative control (Group 1) subjected to the formulation composed of 7% Tween 80, and 3% ethanol in distilled water (2 mL/100 g). In addition, mice which belong to the positive control (Group 2) was treated with 25 mg/kg/day (0.04846 mmol/kg/day) of chloroquine phosphate (CQ). The remaining groups (3–9) were subjected to oral treatment with equimolar amounts of the respective target compounds for four consecutive days. Finally, a blood smear was taken from the tail of the mice in the 5th day (24 h after the last dose), air-dried, fixed with absolute methanol and treated with 6% Giemsa stain. The mean parasitemia level of each group (control and treatment groups) was computed microscopically by counting the number of erythrocytes in four fields (⁓100 erythrocytes per field).

male Swiss albino mice = assay: in vivo oral acute toxicity test; conditions: for mortality in mice: oral 50, 100, 200 and 300 mg/kg, within 24 h and entire study period (14 days); for visible signs of overt toxicity: oral up to 300 mg/kg, physical and behavioral observations, 14 days
Description: For this purpose, the mice were randomly allocated into six groups each containing six mice. The first five groups of mice (Group 1–5) received each target compound solubilized using 1% gum acacia at a dose of 10, 50, 100, 200 and 300 mg/kg, respectively. The mice in last group (group 6, served as a negative control) were orally treated with the solvent used to dissolve the target compounds (1% gum acacia) at a maximum dose of 1 mL/100 gm of body weight. Each mouse was then monitored for gross changes such as salivation, loss of appetite, lacrimation, hair erection, diarrhea, convulsions, death, and other signs of overt toxicity.

Leishmania major = system: Leishmania major; set-up: method as in PMID 20235747; conditions: cited from earlier work
[3] = L. donovani promastigotes, 22 °C, AlamarBlue fluorescence, read-out: IC50 values, antipromastigote activity
[4] = mice infected with P. berghei ANKA, oral, 48.46 µmol/kg for four days (CQ 25 mg/kg)
[5] = po, mice infected with P. berghei ANKA, oral, 48.46 µmol/kg for four days (CQ 25 mg/kg), versus negative control
[6] = L. donovani promastigotes, 22 °C, AlamarBlue fluorescence
[7] = read-out: IC50 values, antipromastigote activity, L. donovani promastigotes, 22 °C, AlamarBlue fluorescence

Work on `C[C@@H]1[C@H](O)[C@@H](C)/C=C/C=C/C=C/C=C/C=C/C=C/C=C/[C@H](O[C@@H]2O[C@H](C)[C@@H](O)[C@H](N)[C@@H]2O)C[C@@H]2O[C@](O)(C[C@@H](O)C[C@@H](O)[C@H](O)CC[C@@H](O)C[C@@H](O)CC(=O)O[C@H]1C)C[C@H](O)[C@H]2C(=O)O` [Amphotericin B, amphotericin B deoxycholate, reference compound] yielded an IC50 [1, 3] of 0.046 ± 0.009 µg/mL (≈ 0.0498 µM).
For `CCN(CC)CCCC(C)Nc1ccnc2cc(Cl)ccc12` (stereo not drawn) [CQ, chloroquine phosphate, reference compound], the inhibition in vivo at 48.46 µmol/kg [2] was 100% and the “% Parasitemia” value [2, 4] was 0%.
In the case of `O=c1c2ccccc2nc(/C=C/c2ccc([N+](=O)[O-])cc2)n1-c1ccccc1` [Compound 6, (E)-2-(4-nitrostyryl)-3-phenylquinazolin-4(3H)-one], the inhibition in vivo at 48.46 µmol/kg [2, 5] is reported as < 50%, the Mean survival time [2, 4] is reported as 6.5 ± 0.3 days and the “% Parasitemia” value [2, 4] is reported as 39.22 ± 0.7%. For the same compound, the “IC50 values, antipromastigote activity” value [1, 6] was 0.021 ± 0.008 µg/mL (≈ 0.0569 µM), the IC50 [1, 7] was 0.0212 µg/mL (≈ 0.0574 µM) and the mortality in mice (male Swiss albino mice) was “none of the compounds caused mortality”. The “visible signs of overt toxicity” value (male Swiss albino mice) was “no visible signs of overt toxicity”.
For `Cc1ccccc1-n1c(/C=C/c2ccc(Cl)cc2)nc2ccccc2c1=O` [Compound 7, (E)-2-(4-chlorostyryl)-3-o-tolylquinazolin-4(3H)-one], the inhibition in vivo at 48.46 µmol/kg [2, 5] was < 50%, the Mean survival time [2, 4] was 6.9 ± 0.5 days and the “% Parasitemia” value [2, 4] was 35.69 ± 0.69%. The IC50 [1, 7] was 3.25 ± 0.282 µg/mL (≈ 8.71 µM).
In the case of `CC(=O)Oc1ccc(/C=C/c2nc3ccccc3c(=O)n2-c2ccccc2C)cc1` [Compound 8, 4-((1E)-2-(3,4-dihydro-4-oxo-3-o-tolylquinazolin-2-yl)vinyl)phenyl acetate], the Mean survival time [2, 4] is reported as 9.4 ± 0.37 days, the “% Parasitemia” value [2, 4] is reported as 19.57 ± 0.77% and the IC50 [1, 7] is reported as 3.33 ± 0.126 µg/mL. For the same compound, the mortality in mice (male Swiss albino mice) was “none of the compounds caused mortality” and the “visible signs of overt toxicity” value (male Swiss albino mice) was “no visible signs of overt toxicity”.
With `COc1cc(/C=C/c2nc3ccccc3c(=O)n2-c2ccc(C)cc2)ccc1OC(C)=O` [Compound 10, 4-((1E)-2-(3,4-dihydro-4-oxo-3-p-tolylquinazolin-2-yl)vinyl)-2-methoxyphenyl acetate] the Mean survival time [2, 4] was 9.8 ± 0.24 days, the “% Parasitemia” value [2, 4] was 16.85 ± 0.39% and the IC50 [1, 3] was 0.196 ± 0.042 µg/mL. The mortality in mice (male Swiss albino mice) was “none of the compounds caused mortality” and the “visible signs of overt toxicity” value (male Swiss albino mice) was “no visible signs of overt toxicity”.
For `Cc1ccccc1-n1c(/C=C/c2ccc(O)cc2)nc2ccccc2c1=O` [Compound 11, (E)-2-(4-hydroxystyryl)-3-o-tolylquinazolin-4(3H)-one], the inhibition in vivo at 48.46 µmol/kg [2, 5] was > 50%, the Mean survival time [2, 4] was 7.3 ± 0.54 days and the “% Parasitemia” value [2, 4] was 25.27 ± 0.76%. It also gave an IC50 [1, 7] of 0.185 ± 0.026 µg/mL (≈ 0.522 µM).
In the case of `Cc1ccc(-n2c(/C=C/c3ccc(O)cc3)nc3ccccc3c2=O)cc1` [Compound 12, (E)-2-(4-hydroxystyryl)-3-p-tolylquinazolin-4(3H)-one], the inhibition in vivo at 48.46 µmol/kg [2, 5] is reported as > 50%, the Mean survival time [2, 4] is reported as 7.6 ± 1.12 days and the “% Parasitemia” value [2, 4] is reported as 32 ± 0.5%. The IC50 [1, 7] was 1.84 ± 0.168 µg/mL (≈ 5.2 µM).
For `COc1cc(/C=C/c2nc3ccccc3c(=O)n2-c2ccc(C)cc2)ccc1O` [Compound 13, (E)-2-(4-hydroxy-3-methoxystyryl)-3-p-tolylquinazolin-4(3H)-one], the inhibition in vivo at 48.46 µmol/kg [2, 5] was > 50%, the Mean survival time [2, 4] was 7.9 ± 0.3 days and the “% Parasitemia” value [2, 4] was 24.13 ± 0.29%. For the same compound, the IC50 [1, 7] was 2.27 ± 0.214 µg/mL (≈ 5.89 µM).
In the case of `O=c1c2ccccc2nc(-c2ccccc2)n1Cc1ccccc1` [III], the “IC50, in vitro antileishmanial activity” value (Leishmania major) is given as 48.91 µg/mL (≈ 157 µM).
In the case of `CCCCCCCCCCCCCCCCOP(=O)([O-])OCC[N+](C)(C)C` [Miltefosine, hexadecylphosphocholine, reference compound], the “IC50 values, antipromastigote activity” value [1, 6] is reported as 3.191 ± 0.194 µg/mL (≈ 7.83 µM) and the IC50 [1, 3] is reported as 3.19 µg/mL (≈ 7.83 µM).
